Measured values as given in the supplement of paper PMC8612539.
Values after ≈ are worked out from the molar mass of the structure shown.

Tested on: Mannheimia haemolytica
Test: minimum inhibitory concentration (MIC)
Experimental: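 Broth microdilution MIC (Sensititre BOPO7F bovine plate, CLSI methods) of 19 antimicrobials against field isolates of P. multocida, M. haemolytica, H. somni (deep nasopharyngeal swabs) and E. coli, Enterococcus spp. (rectal swabs) from weaned dairy heifers. Incubation 16-24 h at 35 C. MIC is the lowest concentration preventing visible growth. Values with <= or > lie at the tested range limits. Trimethoprim-sulfamethoxazole is given as the trimethoprim component of a 1:19 mixture.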

CN1C[C@@H]2C[C@H]1CN2c1cc2c(cc1F)c(=O)c(C(=O)O)cn2C1CC1 [Danofloxacin]
Conditions | minimum inhibitory concentration [µg/mL]
isolate (source animal id): 8 | 0.5 (≈ 1.4 µM)
isolate (source animal id): 13 | 0.5 (≈ 1.4 µM)
isolate (source animal id): 18 | 0.5 (≈ 1.4 µM)
isolate (source animal id): 21 | 0.5 (≈ 1.4 µM)
isolate (source animal id): 25 | 0.5 (≈ 1.4 µM)
isolate (source animal id): 27 | 0.25 (≈ 0.7 µM)
isolate (source animal id): 28 | > 1
isolate (source animal id): 30 | 0.5 (≈ 1.4 µM)
isolate (source animal id): 31 | > 1
isolate (source animal id): 32 | 0.25 (≈ 0.7 µM)
isolate (source animal id): 34 | 0.5 (≈ 1.4 µM)
isolate (source animal id): 36 | 0.5 (≈ 1.4 µM)
isolate (source animal id): 37 | 0.5 (≈ 1.4 µM)
isolate (source animal id): 40 | 0.5 (≈ 1.4 µM)
isolate (source animal id): 41 | 0.5 (≈ 1.4 µM)
isolate (source animal id): 43 | 0.5 (≈ 1.4 µM)
isolate (source animal id): 46 | 0.5 (≈ 1.4 µM)
isolate (source animal id): 49 | 0.5 (≈ 1.4 µM)
isolate (source animal id): 50 | 0.5 (≈ 1.4 µM)
isolate (source animal id): 51 | 0.5 (≈ 1.4 µM)
isolate (source animal id): 52 | 0.5 (≈ 1.4 µM)
isolate (source animal id): 53 | 0.5 (≈ 1.4 µM)
isolate (source animal id): 55 | 0.5 (≈ 1.4 µM)
isolate (source animal id): 56 | 0.5 (≈ 1.4 µM)
isolate (source animal id): 57 | > 1
isolate (source animal id): 100 | > 1
isolate (source animal id): 103 | 0.5 (≈ 1.4 µM)
isolate (source animal id): 107 | 0.5 (≈ 1.4 µM)
isolate (source animal id): 108 | 0.5 (≈ 1.4 µM)
isolate (source animal id): 112 | 0.5 (≈ 1.4 µM)
isolate (source animal id): 113 | > 1
isolate (source animal id): 121 | 0.5 (≈ 1.4 µM)
isolate (source animal id): 122 | 0.5 (≈ 1.4 µM)
isolate (source animal id): 123 | > 1
isolate (source animal id): 126 | > 1
isolate (source animal id): 133 | > 1
isolate (source animal id): 135 | > 1
isolate (source animal id): 138 | > 1
isolate (source animal id): 141 | > 1
isolate (source animal id): 142 | > 1
isolate (source animal id): 145 | > 1
isolate (source animal id): 149 | ≤ 0.12
isolate (source animal id): 151 | ≤ 0.12
isolate (source animal id): 152 | > 1
isolate (source animal id): 154 | ≤ 0.12
isolate (source animal id): 159 | > 1
isolate (source animal id): 162 | > 1
isolate (source animal id): 170 | ≤ 0.12
isolate (source animal id): 171 | ≤ 0.12
isolate (source animal id): 172 | ≤ 0.12
isolate (source animal id): 173 | ≤ 0.12
isolate (source animal id): 179 | ≤ 0.12
isolate (source animal id): 180 | ≤ 0.12
isolate (source animal id): 183 | ≤ 0.12
isolate (source animal id): 186 | ≤ 0.12
isolate (source animal id): 187 | ≤ 0.12
isolate (source animal id): 188 | ≤ 0.12
isolate (source animal id): 190 | ≤ 0.12
isolate (source animal id): 191 | ≤ 0.12
isolate (source animal id): 192 | ≤ 0.12
isolate (source animal id): 201 | ≤ 0.12
isolate (source animal id): 202 | ≤ 0.12
isolate (source animal id): 209 | ≤ 0.12
isolate (source animal id): 211 | ≤ 0.12
isolate (source animal id): 220 | ≤ 0.12
isolate (source animal id): 221 | ≤ 0.12
isolate (source animal id): 223 | ≤ 0.12
isolate (source animal id): 233 | > 1
isolate (source animal id): 237 | > 1
isolate (source animal id): 241 | > 1
isolate (source animal id): 252 | 0.25 (≈ 0.7 µM)
isolate (source animal id): 253 | 0.5 (≈ 1.4 µM)
isolate (source animal id): 259 | > 1
isolate (source animal id): 260 | 0.5 (≈ 1.4 µM)
isolate (source animal id): 262 | > 1
isolate (source animal id): 282 | > 1
isolate (source animal id): 287 | 0.5 (≈ 1.4 µM)
isolate (source animal id): 288 | ≤ 0.12
isolate (source animal id): 291 | ≤ 0.12
isolate (source animal id): 293 | 0.5 (≈ 1.4 µM)
isolate (source animal id): 298 | 0.5 (≈ 1.4 µM)
isolate (source animal id): 299 | 0.5 (≈ 1.4 µM)
isolate (source animal id): 300 | ≤ 0.12
isolate (source animal id): 302 | 0.5 (≈ 1.4 µM)
isolate (source animal id): 304 | 0.5 (≈ 1.4 µM)
isolate (source animal id): 306 | ≤ 0.12
isolate (source animal id): 308 | ≤ 0.12
isolate (source animal id): 309 | ≤ 0.12
isolate (source animal id): 313 | 0.5 (≈ 1.4 µM)
isolate (source animal id): 318 | 0.25 (≈ 0.7 µM)
isolate (source animal id): 320 | ≤ 0.12
isolate (source animal id): 321 | 0.5 (≈ 1.4 µM)
isolate (source animal id): 323 | 0.5 (≈ 1.4 µM)
isolate (source animal id): 324 | 0.5 (≈ 1.4 µM)
isolate (source animal id): 326 | 0.5 (≈ 1.4 µM)
isolate (source animal id): 328 | 0.5 (≈ 1.4 µM)
isolate (source animal id): 329 | 0.5 (≈ 1.4 µM)
isolate (source animal id): 333 | 0.5 (≈ 1.4 µM)
isolate (source animal id): 335 | 0.5 (≈ 1.4 µM)
isolate (source animal id): 338 | 0.5 (≈ 1.4 µM)
